Here are results for one molecule from patent US20150191445A1, “ACYL-HYDRAZONE AND OXADIAZOLE COMPOUNDS, PHARMACEUTICAL COMPOSITIONS CONTAINING THE SAME AND USES THEREOF” (Universidade Federal de Santa Catarina, priority 2011, published 2015).

SMILES strings stand for the structures. pIC50: −log10 of the molar value.

In one assay the test system is HL-60 cells. Briefly: DNA microarray gene expression and GSEA analysis. The class given is cell-based, human. As to conditions: 125 nM, 6 h. The procedure:
The cells were incubated for 12 hours in fresh medium before the experiments. Two million cells from the leukemic cell line HL60, in triplicate, were treated with a 125 nM dose of compound 07 or with dimethylsulfoxide (DMSO) vehicle for 6 h, in DMEM supplemented with 10% fetal bovine serum. At the end of this period, the cells were recovered by brief centrifugation and lysed in a solution of guanidine of the RNAspin Mini RNA Isolation kit (GE).
Total RNA was extracted from cells using the RNAspin Mini RNA Isolation kit (GE) following the manufacturer's instructions. A total of 100 ng of RNA was used to prepare biotinylated complementary RNA probes (Bio-cRNA), by cDNA synthesis followed by amplification by in vitro transcription, using the GeneChip WT cDNA Synthesis and Amplification kit (Affymetrix) according to the recommendations of the manufacturer. […]
the results of the microarray hybridization were read in the Affymetrix Gene Chip Scanner 3000-7G. Data were analyzed in the Bioconductor platform. […] The list of differentially expressed genes were analyzed using the CMap (http://www.broad.mit.edu/cmap/) for identification of possible action mechanisms related to the action of known compounds (Lamb, J., Crawford E. D. The Connectivity Map: Using Gene-Expression Signatures to Connect Small Molecules, Genes and Disease Science 2006, 313, 1929-1935). […]

Another assay relates to Jurkat cells. Briefly: MTT cytotoxicity assay, Jurkat cell line. The conditions noted are these: 48 h of treatment, read-out: IC50 T (Jurkat). The format is cell-based, human. The procedure: All compounds were resuspended in DMSO at stock concentration of 20 mM and stored at −20° C. For cytotoxicity testing, the dilutions from the stock solutions were made in culture medium (RPMI-1640 plus 10% of fetal bovine serum, 100 IU/ml penicillin and 100 µg/mL Streptomycin), immediately before being discharged to the cells.
The REH and Jurkat cell lines were maintained in
RPMI-1640 medium with 10% FBS (fetal bovine serum), 100 IU/mL penicillin, 100 µg/mL streptomycin and incubated at 37° C. and 5% CO2. Cytotoxicity assays were performed according to the method described in the literature (Pieters, R.; et al. In vitro drug sensitivity of cells from children with leukemia using the MTT assay with improved culture conditions. Blood, 1990, 76, 2327-2336; Pieters, R.; et al. Relation of cellular drug resistance to long-term clinical outcome in childhood acute lymphoblastic leukaemia. Lancet, 1991, 338, 399-403 e Kaspers, G. J.; et al. In vitro cellular drug resistance and prognosis in newly diagnosed childhood acute lymphoblastic leukemia. Blood, 1997, 90, 2723). Cells were resuspended at a concentration of 3.75 10^5 cells/mL in culture medium as described. Eighty microliters of this suspension were seeded into plates with 96 round-bottom wells, containing 20 microliters of different concentrations of compound or vehicle alone. Each treatment was done in triplicate. After 48 hours of incubation at 37° C. and 5% CO2, 20 μL of MTT solution was added (5 mg/mL of 1x PBS), followed by further incubation for 4 hours and 30 minutes at 37° C. and 5% CO2. During these 4 hours and 30 minutes, MTT (yellowish) is metabolized to formazan salt (bluish in color) by living cells. After this, 100 μL sodium dodecyl sulphate (SDS) 10%+0.1M of HCl were added to dissolve the formazan crystals. After incubating overnight, absorbance reading at 570 nm was carried out. The percentage of cells surviving the treatment were calculated relative to the number of surviving cells in the medium without addition of the compounds in question (“negative control”).
c) Determination of IC: IC50 is defined as the concentration of a compound at which 50% of maximal inhibition is obtained. After reading the absorbance, survival curves were constructed and the values of IC50 were obtained with the GraphPad Prism software.
On the technique in general: Tetrazolium assays rely on reduction of a dye to a coloured formazan, in cell work by metabolically active cells.

For the molecule `COc1cc(C(=O)NN=Cc2cccc3ccccc23)cc(OC)c1OC` [Compound 07], the “expression of tubulin and tubulin-specific chaperone gene set (GSEA)” value in the assay with HL-60 cells is “drastic reduction of the expression of a set of genes of tubulin and tubulin-specific chaperones”. The negative-log IC50 (pIC50) in the assay on Jurkat cells is 7.80.

The pIC50 is the IC50 on a negative log10 scale, so that one unit is a factor of ten.
